One may read the melting point as the temperature, or range, at which the solid turns liquid.

`Cc1cc(-c2ccc(C(F)(F)F)cc2)cn2c(C#Cc3ccc(S(N)(=O)=O)s3)cnc12` [Example 212, 5-[8-Methyl-6-(4-trifluoromethyl-phenyl)-imidazo[1,2-a]pyridin-3-ylethynyl]-thiophene-2-sulfonic acid amide] registered a melting point of 270 °C.

For the molecule `N#Cc1cc(-c2ccc(C(F)(F)F)cc2)cn2c(C#Cc3cnc(N)nc3)cnc12` [Example 227, 3-(2-Amino-pyrimidin-5-ylethynyl)-6-(4-trifluoromethyl-phenyl)-imidazo[1,2-a]pyridine-8-carbonitrile], the melting point amounted to 290 °C.

On to `Cc1cc(-c2ccc(Cl)cc2)nc2c(C#Cc3ccc(C(C)(C)O)cc3)cnn12` [Example 301, 2-{4-[5-(4-Chloro-phenyl)-7-methyl-pyrazolo[1,5-a]pyrimidin-3-ylethynyl]-phenyl}-propan-2-ol], for which the melting point was 112 to 115 °C.

As for `FC(F)(F)c1ccc(-c2cc(C(F)(F)F)n3ncc(C#Cc4cccnc4C4CC4)c3n2)cc1` [Example 8, 3-(2-Cyclopropyl-pyridin-3-ylethynyl)-7-trifluoromethyl-5-(4-trifluoromethyl-phenyl)-pyrazolo[1,5-a]pyrimidine], the melting point is 202 °C.

`Cc1cc(-c2cc(C(F)F)n3ncc(C#Cc4ccc(S(N)(=O)=O)cc4)c3n2)ccc1Cl` [Example 173, 4-[5-(4-Chloro-3-methyl-phenyl)-7-difluoromethyl-pyrazolo[1,5-a]pyrimidin-3-ylethynyl]-benzenesulfonamide]: the melting point turned out to be 237 °C.

`Cc1cc(-c2ccc(Cl)cc2)cn2c(C#Cc3cncc(S(=O)(=O)NC(C)(C)CO)c3)cnc12` [Example 230, 5-[6-(4-Chloro-phenyl)-8-methyl-imidazo[1,2-a]pyridin-3-ylethynyl]-pyridine-3-sulfonic acid (2-hydroxy-1,1-dimethyl-ethyl)-amide] gave a melting point of 215 to 217 °C.

The molecule `O=S(=O)(NCCO)c1cccc(C#Cc2cnn3c(C(F)(F)F)cc(-c4ccc(C(F)(F)F)cc4)nc23)c1` [Example 132, N-(2-Hydroxy-ethyl)-3-[7-trifluoromethyl-5-(4-trifluoromethyl-phenyl)-pyrazolo[1,5-a]pyrimidin-3-ylethynyl]-benzenesulfonamide] yielded a melting point of 213 °C.

`CN(C)CCNS(=O)(=O)c1ccc(C#Cc2cnn3c(C(F)F)cc(-c4ccc(C(F)(F)F)cc4)nc23)cc1` [Example 141, 4-[7-Difluoromethyl-5-(4-trifluoromethyl-phenyl)-pyrazolo[1,5-a]pyrimidin-3-ylethynyl]-N-(2-dimethylamino-ethyl)-benzenesulfonamide] showed a melting point of 157 to 159 °C.

Regarding `NS(=O)(=O)c1ccc(C#Cc2cnn3c(C(F)F)cc(-c4ccc(C(F)(F)F)cc4)nc23)c(F)c1` [Example 48, 4-[7-Difluoromethyl-5-(4-trifluoromethyl-phenyl)-pyrazolo[1,5-a]pyrimidin-3-ylethynyl]-3-fluoro-benzenesulfonamide], the melting point was 230 to 232 °C.

The molecule `NS(=O)(=O)c1ccc(C#Cc2cnn3c(C(F)F)cc(-c4ccc(C(F)(F)F)cc4)nc23)cc1` [Example 49, 4-[7-Difluoromethyl-5-(4-trifluoromethyl-phenyl)-pyrazolo[1,5-a]pyrimidin-3-ylethynyl]-benzenesulfonamide] had a melting point of 254 °C.

Consider `FC(F)(F)c1ccc(-c2cc(C(F)(F)F)n3ncc(C#Cc4ccccc4)c3n2)cc1` [Example 62, 3-Phenylethynyl-7-trifluoromethyl-5-(4-trifluoromethyl-phenyl)-pyrazolo[1,5-a]pyrimidine], for which the melting point lay in the range of 144 to 145 °C.

Molecule `FC(F)(F)c1ccc(-c2cc(C(F)(F)F)n3ncc(C#Cc4cccnc4)c3n2)cc1` [Example 3, 3-Pyridin-3-ylethynyl-7-trifluoromethyl-5-(4-trifluoromethyl-phenyl)-pyrazolo[1,5-a]pyrimidine] registered a melting point of 187 to 188 °C.

On to `O=S(=O)(c1ccc(C#Cc2cnn3c(C(F)(F)F)cc(-c4ccc(C(F)(F)F)cc4)nc23)cc1)N1CCOCC1` [Example 122, 3-[4-(Morpholine-4-sulfonyl)-phenylethynyl]-7-trifluoromethyl-5-(4-trifluoromethyl-phenyl)-pyrazolo[1,5-a]pyrimidine], for which the melting point was in the range of 229 to 231 °C.

In the case of `Cc1cc(-c2ccc(Cl)cc2)nc2c(C#Cc3ccc(S(N)(=O)=O)cc3)cnn12` [Example 292, 4-[5-(4-Chloro-phenyl)-7-methyl-pyrazolo[1,5-a]pyrimidin-3-ylethynyl]-benzenesulfonamide], the melting point fell in the range of 230 to 233 °C.

With `Nc1ccc(C#Cc2cnc3c(F)cc(-c4ccc(C(F)(F)F)cc4)cn23)cn1` [Example 239, 5-[8-Fluoro-6-(4-trifluoromethyl-phenyl)-imidazo[1,2-a]pyridin-3-ylethynyl]-pyridin-2-ylamine], the melting point lay within 281 to 282 °C.

The molecule `Cc1cc(-c2ccc(Cl)cc2)cn2c(C#Cc3ccc(N)nc3)cnc12` [Example 210, 5-[6-(4-Chloro-phenyl)-8-methyl-imidazo[1,2-a]pyridin-3-ylethynyl]-pyridin-2-ylamine] registered a melting point of 231 to 234 °C.

In turn, `NS(=O)(=O)c1ccc(C#Cc2cnn3c(CO)cc(-c4ccc(Cl)cc4)nc23)s1` [Example 156, 5-[5-(4-Chloro-phenyl)-7-hydroxymethyl-pyrazolo[1,5-a]pyrimidin-3-ylethynyl]-thiophene-2-sulfonic acid amide] displayed a melting point of 194 to 196 °C.

Turning to `CN(C)CCNS(=O)(=O)c1ccc(C#Cc2cnn3c(C(F)(F)F)cc(-c4cccc(C(F)(F)F)c4)nc23)s1` [Example 251, 5-[7-Trifluoromethyl-5-(3-trifluoromethyl-phenyl)-pyrazolo[1,5-a]pyrimidin-3-ylethynyl]-thiophene-2-sulfonic acid (2-dimethylamino-ethyl)-amide], the melting point amounted to 197 °C.

Consider `O=S(=O)(Nc1cccnc1)c1ccc(C#Cc2cnn3c(C(F)(F)F)cc(-c4ccc(C(F)(F)F)cc4)nc23)s1` [Example 279, 5-[7-Trifluoromethyl-5-(4-trifluoromethyl-phenyl)-pyrazolo[1,5-a]pyrimidin-3-ylethynyl]-thiophene-2-sulfonic acid pyridin-3-ylamide], for which the melting point is 248 °C.

`CC(C)(CO)NS(=O)(=O)c1cnc(C#Cc2cnn3c(C(F)(F)F)cc(-c4ccc(Cl)c(Cl)c4)nc23)s1` [Example 90, 2-[5-(3,4-Dichloro-phenyl)-7-trifluoromethyl-pyrazolo[1,5-a]pyrimidin-3-ylethynyl]-thiazole-5-sulfonic acid (2-hydroxy-1,1-dimethyl-ethyl)-amide]: the melting point lay in the range of 220 to 223 °C.

`CC(C)(CO)NS(=O)(=O)c1cnc(C#Cc2cnn3c(C(F)(F)F)cc(-c4ccc(C(F)(F)F)cc4)nc23)s1` [Example 23, 2-[7-Trifluoromethyl-5-(4-trifluoromethyl-phenyl)-pyrazolo[1,5-a]pyrimidin-3-ylethynyl]-thiazole-5-sulfonic acid (2-hydroxy-1,1-dimethyl-ethyl)-amide] displayed a melting point of 252 to 253 °C.

In the case of `NCCNS(=O)(=O)c1ccc(C#Cc2cnn3c(C(F)(F)F)cc(-c4cccc(C(F)(F)F)c4)nc23)s1` [Example 262, 5-[7-Trifluoromethyl-5-(3-trifluoromethyl-phenyl)-pyrazolo[1,5-a]pyrimidin-3-ylethynyl]-thiophene-2-sulfonic acid (2-amino-ethyl)-amide], the melting point is 196 °C.
